Source: the NIST ThermoML archive (doi:10.1021/je100949x)
± gives the expanded uncertainty stated by the source.

Experiment: xn = mol fraction of the nth substance listed
Settings: Maximal bubble pressure

CCCCn1cc[n+](C)c1.[Cl-] [1-butyl-3-methylimidazolium chloride] + O
Settings | surface tension liquid-gas [mN/m]
298.1 K, x1 = 0.011 | 66.2 ± 1.1
298.1 K, x1 = 0.015 | 65.5 ± 1.9
298.1 K, x1 = 0.018 | 64.7 ± 3.4
298.2 K, x1 = 0.004 | 69.9 ± 1
298.2 K, x1 = 0.025 | 64.5 ± 4
298.2 K, x1 = 0.031 | 63.7 ± 0.7
298.3 K, x1 = 0.007 | 68.8 ± 1.5
298.3 K, x1 = 0.053 | 61.7 ± 0.7
298.3 K, x1 = 0.073 | 59.9 ± 1
298.7 K, x1 = 0.142 | 56.7 ± 0.5
298.9 K, x1 = 0.112 | 57.6 ± 1.2
298.9 K, x1 = 0.226 | 55 ± 0.5
299 K, x1 = 0.188 | 55.4 ± 0.5
299.1 K, x1 = 0.004 | 68.9 ± 2.3
299.2 K, x1 = 0.009 | 66.5 ± 0.6
299.2 K, x1 = 0.016 | 65 ± 0.7
299.2 K, x1 = 0.023 | 63.8 ± 0.9
299.2 K, x1 = 0.303 | 55 ± 0.5
299.3 K, x1 = 0.03 | 62.8 ± 1.5
299.5 K, x1 = 0.033 | 63.3 ± 1.2
299.5 K, x1 = 0.037 | 63 ± 1
299.5 K, x1 = 0.374 | 54.9 ± 0.5
299.6 K, x1 = 0.028 | 64.1 ± 1.4
299.7 K, x1 = 0.002 | 70.5 ± 0.4
299.7 K, x1 = 0.011 | 67.1 ± 0.9
299.7 K, x1 = 0.017 | 65.6 ± 0.6
299.9 K, x1 = 0.067 | 59.3 ± 0.5
300 K, x1 = 0.048 | 61 ± 4.1
300.1 K, x1 = 0.422 | 54.3 ± 0.6
300.3 K, x1 = 0.077 | 59.6 ± 1.2
300.3 K, x1 = 0.11 | 57 ± 0.5
300.4 K, x1 = 0.089 | 57.9 ± 0.6
300.4 K, x1 = 0.292 | 53.7 ± 0.9
300.5 K, x1 = 0.139 | 55.8 ± 0.7
300.5 K, x1 = 0.198 | 54.9 ± 0.4
300.6 K, x1 = 0.134 | 55.9 ± 0.4
300.6 K, x1 = 0.48 | 54.1 ± 0.5
300.7 K, x1 = 0.163 | 55.4 ± 0.4
300.9 K, x1 = 0.36 | 53.8 ± 1.3
301.1 K, x1 = 0.225 | 54.4 ± 0.5
301.2 K, x1 = 0.268 | 54.8 ± 0.5
301.6 K, x1 = 0.329 | 54.6 ± 0.6
302.1 K, x1 = 0.398 | 54.4 ± 0.5

CCCCn1cc[n+](C)c1.F[B-](F)(F)F [1-butyl-3-methylimidazolium tetrafluoroborate] + O
Settings | surface tension liquid-gas [mN/m]
298 K, x1 = 0.053 | 47.7 ± 0.5
298 K, x1 = 0.114 | 48.1 ± 0.3
298.1 K, x1 = 0.014 | 52.4 ± 6
298.1 K, x1 = 0.046 | 47.8 ± 3.6
298.2 K, x1 = 0.007 | 60.4 ± 4.6
298.2 K, x1 = 0.021 | 49.2 ± 9.6
298.3 K, x1 = 0.029 | 47.8 ± 0.6
298.3 K, x1 = 0.033 | 47.9 ± 0.6
298.3 K, x1 = 0.068 | 48.1 ± 1.1
298.3 K, x1 = 0.186 | 48.1 ± 0.4
298.4 K, x1 = 0.004 | 60.8 ± 3.2
298.4 K, x1 = 0.019 | 48.9 ± 8.2
298.4 K, x1 = 0.028 | 48 ± 1.1
298.4 K, x1 = 0.114 | 48.1 ± 0.9
298.4 K, x1 = 0.17 | 48.1 ± 0.9
298.4 K, x1 = 0.228 | 47.9 ± 1
298.5 K, x1 = 0.006 | 56.1 ± 7.4
298.5 K, x1 = 0.009 | 53.2 ± 6.8
298.5 K, x1 = 0.013 | 50.7 ± 4
298.5 K, x1 = 0.109 | 48.4 ± 2.7
298.5 K, x1 = 0.163 | 48.2 ± 0.5
298.6 K, x1 = 0.026 | 48.5 ± 1.5
298.6 K, x1 = 0.061 | 48.4 ± 0.4
298.6 K, x1 = 0.233 | 47.9 ± 0.4
298.6 K, x1 = 0.292 | 47.6 ± 0.9
298.6 K, x1 = 0.355 | 47.5 ± 0.7
298.7 K, x1 = 0.014 | 50.7 ± 1.3
298.7 K, x1 = 0.05 | 48.3 ± 1.7
298.7 K, x1 = 0.42 | 47.4 ± 0.7
298.8 K, x1 = 0.01 | 53.2 ± 4.9
298.8 K, x1 = 0.319 | 47.7 ± 0.4
298.9 K, x1 = 0.392 | 47.5 ± 0.4
298.9 K, x1 = 0.435 | 47.2 ± 0.7
299 K, x1 = 0.004 | 60.3 ± 22
299.2 K, x1 = 0.51 | 47.3 ± 0.8

O [water] + CCCCn1cc[n+](C)c1.F[B-](F)(F)F
x2 = 0
Settings | surface tension liquid-gas [mN/m]
298.1 K | 72 ± 3.6
298.5 K | 71.9 ± 7.7
298.9 K | 71.8 ± 8.2

O [water] + CCCCn1cc[n+](C)c1.[Cl-]
x2 = 0
Settings | surface tension liquid-gas [mN/m]
298.1 K | 71.9 ± 0.7
298.9 K | 71.7 ± 0.6
299.7 K | 71.6 ± 0.4
